Numbered stars: 1 amine (or outer) side, 2 acyl side, 3 side chain; on linkers, the order of the positions; unused ones are H or OH. Bridge positions count the residues as written; N and C are the ends. Square brackets hold non-standard residues; d marks the D form. Side chains are listed from the residue outwards. Peptide text beside a SMILES is read from it. * marks the point of attachment. Dip = N[C@H](C(=O)O)C(c1ccccc1)c1ccccc1; Hag = O=C([C@H](CCC=[*:3])N[*:1])[*:2]; Palmitoyl = CCCCCCCCCCCCCCCC(=O)*; β3hF = N[C@H](CC(=O)O)Cc1ccccc1; Isovaleryl = CC(C)CC(=O)*; Ahx = NCCCCCC(=O)O
Tests used:
[1] = molecular target: human ferroportin (SLC40A1) fused in frame with GFP, stably expressed on HEK293 cells (human) (UniProt Q9NP59); assay: cell-based or functional assay
[2] = molecular target: T1, ferroportin fused to green fluorescent protein (Mus musculus, UniProt Q9JHI9); conditions: read-out: EC50 (50% of maximal loss of fluorescence); cells incubated 24 hours; reference preparations of Hep25; cited from earlier work
T1 sequence (Q9JHI9 1-570): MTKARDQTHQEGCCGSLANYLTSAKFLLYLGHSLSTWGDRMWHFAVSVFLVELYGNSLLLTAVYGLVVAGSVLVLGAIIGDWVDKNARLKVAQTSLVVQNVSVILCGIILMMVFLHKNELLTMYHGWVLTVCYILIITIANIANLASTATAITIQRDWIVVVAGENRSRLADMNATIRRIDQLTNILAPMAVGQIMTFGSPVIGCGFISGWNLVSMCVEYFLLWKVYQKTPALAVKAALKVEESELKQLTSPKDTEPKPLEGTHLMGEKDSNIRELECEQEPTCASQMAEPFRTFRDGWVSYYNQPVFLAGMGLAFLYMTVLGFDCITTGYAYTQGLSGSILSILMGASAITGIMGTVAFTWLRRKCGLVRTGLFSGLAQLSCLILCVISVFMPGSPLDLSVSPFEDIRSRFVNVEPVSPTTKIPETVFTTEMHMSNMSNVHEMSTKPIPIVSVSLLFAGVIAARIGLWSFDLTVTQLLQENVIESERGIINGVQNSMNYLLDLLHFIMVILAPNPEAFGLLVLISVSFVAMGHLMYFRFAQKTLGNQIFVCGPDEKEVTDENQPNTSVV

[3] = molecular target: T2, human ferroportin (SLC40A1) (Homo sapiens, UniProt Q9NP59); assay: FPN activity assay: internalization/degradation of ferroportin-GFP in stably transfected HEK293 cells (decrease in GFP fluorescence); format: cell-based; conditions: compound incubated at least 18 hours
T2 sequence (Q9NP59 1-571): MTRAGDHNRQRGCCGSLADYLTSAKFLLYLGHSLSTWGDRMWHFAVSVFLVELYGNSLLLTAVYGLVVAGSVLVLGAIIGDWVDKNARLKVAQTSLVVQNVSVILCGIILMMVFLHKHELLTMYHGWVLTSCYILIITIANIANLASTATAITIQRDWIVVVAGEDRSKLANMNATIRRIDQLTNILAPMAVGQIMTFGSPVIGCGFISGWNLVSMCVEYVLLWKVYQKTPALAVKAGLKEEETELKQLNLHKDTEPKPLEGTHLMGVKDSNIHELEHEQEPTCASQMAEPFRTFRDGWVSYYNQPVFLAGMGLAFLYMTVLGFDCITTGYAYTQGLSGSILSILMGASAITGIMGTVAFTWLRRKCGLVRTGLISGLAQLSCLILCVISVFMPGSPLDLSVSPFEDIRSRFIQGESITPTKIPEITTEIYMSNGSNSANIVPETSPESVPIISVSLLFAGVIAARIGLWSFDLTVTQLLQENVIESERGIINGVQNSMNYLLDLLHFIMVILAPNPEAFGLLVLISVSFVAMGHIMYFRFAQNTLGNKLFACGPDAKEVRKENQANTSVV
Method in brief: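 HEK293 cells stably expressing human ferroportin C-terminally fused to GFP were exposed to peptides for at least 18 h, at most 24 h. Internalization/degradation read as loss of GFP fluorescence; EC50 derived. Retro-inverse mini-hepcidin peptides used as control standards.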

ferroportin = molecular target: T3, ferroportin (Homo sapiens, UniProt Q9NP59); assay: T47D cell-based ferroportin internalization assay in presence of 0.5% mouse serum albumin (MSA); conditions: T47D cells
T3 sequence (Q9NP59 1-571): T2 sequence (Q9NP59 1-571)
Method in brief: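 T47D cells exposed 1 hr to peptide series (10 points from ~5 μM) premixed 30 min at room temperature with 0.5% mouse serum albumin, then 200 nM AF647-labelled ferroportin-binding peptide for 2 hr. Flow cytometry MFI of live singlets; IC50 by 4-parameter fit.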

| Molecule | Potency EC50 [1] [µM] | IC50 [3] [µM] | IC50 (ferroportin) [µM] | further results |
| --- | --- | --- | --- | --- |
| Mini-Hepcidin 1-9 (peptide) | 0.712 |  |  |  |
| RI-Mini Hepcidin (peptide) |  |  |  | Potency EC50 (nM) [1]: > 10000 nM |
| Hepcidin (ligand) | 0.034 |  |  |  |
| CC[C@H](C)[C@@H]1NC(=O)[C@@H](NC(=O)[C@@H](NC(=O)[C@@H]2CCCN2C(=O)[C@H](Cc2ccccc2)NC(=O)[C@H](Cc2c[nH]cn2)NC(=O)[C@@H](NC(=O)[C@@H](N)CC(=O)O)[C@@H](C)O)[C@@H](C)CC)CSSC[C@@H](C(=O)N[C@@H](CCCCN)C(=O)N[C@H](C(=O)O)[C@@H](C)O)NC(=O)[C@@H]2CSSC[C@@H]3NC(=O)[C@@H]4CSSC[C@H](NC(=O)[C@H](Cc5ccccc5)NC1=O)C(=O)N[C@@H](CSSC[C@H](NC(=O)[C@H](CCCCN)NC(=O)[C@H](CO)NC(=O)[C@H](CCCNC(=N)N)NC(=O)[C@H](Cc1c[nH]cn1)NC3=O)C(=O)NCC(=O)N[C@@H](CCSC)C(=O)N2)C(=O)NCC(=O)N4 [Hepcidin, Hy-DTHFPIC(1)IFC(2)C(3)GC(2)C(4)HRSKC(3)GMC(4)C(1)KT-OH] |  |  |  | EC50 [2]: 0.005 to 0.015 µM |

Further lines, with some results ahead:

| Potency EC50 [1] [µM] | IC50 [3] [µM] | IC50 (ferroportin) [µM] | Molecule | further results |
| --- | --- | --- | --- | --- |
|  | 0.01 to 0.1 | 0.01 to 0.1 | CCCCCCCCCCCCCCCC(=O)NCCCCCC(=O)NCCCC[C@@H]1NC(=O)[C@@H]2CCCN2C(=O)[C@H](C(c2ccccc2)c2ccccc2)NC(=O)[C@H](Cc2c[nH]cn2)NC(=O)[C@H]([C@@H](C)O)NC(=O)[C@@H](NC(=O)CC(C)C)CCC=CCC[C@@H](C(=O)N[C@H](CC(N)=O)Cc2ccccc2)NC(=O)[C@H]([C@@H](C)CC)NC1=O [Compd 24] (Isovaleryl-[Hag]TH[Dip]PK([Ahx-Palmitoyl])I[Hag][β3hF]-NH2; staple 1-8) |  |
|  | 0.01 to 0.1 | 0.01 to 0.1 | CCCCCCCCCCCCCCCC(=O)NCCCCCC(=O)NCCCC[C@H](NC(=O)C[C@H](Cc1ccccc1)NC(=O)[C@@H]1CCC=CCC[C@H](NC(=O)CC(C)C)C(=O)N[C@@H]([C@@H](C)O)C(=O)N[C@@H](Cc2c[nH]cn2)C(=O)N[C@@H](C(c2ccccc2)c2ccccc2)C(=O)N2CCC[C@H]2C(=O)N[C@@H](C)C(=O)N[C@@H]([C@@H](C)CC)C(=O)N1)C(=O)N[C@@H](C)C(N)=O [Compd 48] (Isovaleryl-[Hag]TH[Dip]PAI[Hag][β3hF]K([Ahx-Palmitoyl])A-NH2; staple 1-8) |  |
